The values that follow come from ChEMBL document CHEMBL1201862, “PubChem BioAssay data set” (2004).

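The compound was tested at five concentrations on cells cultured in 96-well plates, with a 48-hour exposure period. GI50 marks 50% less growth.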 Activity calls are given as the source filed them. Rule as the data show it: active = GI50 up to about 1.1 µM and inactive = higher. Some results are limits rather than exact numbers.

Common to all, as to test: NCI tumour cell line growth inhibition, 48 h
Experiment [1] deals with 786-0.
In experiment [2] the test system is CAKI-1.
For experiment [3], the system named is COLO 205.
Experiment [4] concerns DU-145.
Experiment [5] concerns HCT-116.
Experiment [6] relates to HCT-15.
Experiment [7] concerns HL-60.
Experiment [8] concerns HT-29.
In experiment [9] the test system is LOX IMVI.
For experiment [10], the system named is NCI-H226.
Experiment [11] relates to NCI-H460.
Experiment [12] has as its system OVCAR-3.
For experiment [13], the system named is OVCAR-4.
For experiment [14], the system named is PC-3.
The subject of experiment [15] is RXF 393.
Experiment [16] has as its system SF-268.
Experiment [17] concerns SW-620.
Experiment [18] deals with UACC-257.
Experiment [19] relates to UO-31.
Experiment [20] relates to RPMI-8226.

For `CC(=O)Nc1nc(NC(C)=O)c2nc(CO)[nH]c2n1`, the GI50 was > 100 µM (inactive) in experiment [1]; > 100 µM (inactive) in [2]; > 100 µM (inactive) in experiment [3]; > 100 µM (inactive) in experiment [4]; > 100 µM (inactive) in experiment [5]; over 100 µM in [6]. In addition, the GI50 in experiment [7], in experiment [8], in experiment [9], in experiment [10], in experiment [11] and in [12] was > 100 µM (inactive) throughout. Also, the GI50 in [13], in experiment [14], in experiment [15], in [16], in experiment [17] and in experiment [18] was > 100 µM (inactive) each time. The GI50 in [19] was > 100 µM (inactive).
For the compound `CC1(C)C[C@H]2[C@H](O)C(CO)=C3C(=O)[C@@H](O)[C@]3(C)[C@H]2C1`, the GI50 in [1] was > 100 µM (inactive); in experiment [2], > 100 µM (inactive); in [3] it was > 100 µM (inactive); in experiment [4], > 100 µM (inactive); in experiment [5], 75.9 µM (inactive); in experiment [6], 52.5 µM. Moreover, the GI50 in experiment [8] was 85.7 µM (inactive); in [9] it was 44.4 µM (inactive); in experiment [10], > 100 µM (inactive); in [12] it was > 100 µM (inactive); in [13], > 100 µM (inactive); in [14], > 100 µM (inactive). The GI50 is 38.4 µM (inactive) in experiment [20]; 61.7 µM (inactive) in [15]; 87.1 µM (inactive) in experiment [16]; > 100 µM (inactive) in experiment [17]; > 100 µM (inactive) in [18]; 89.5 µM (inactive) in [19].
For `CC(=O)OCOC(=O)CN(CC(=O)OCOC(C)=O)Cc1cc2c(cc1OC(C)=O)Oc1cc(OC(C)=O)c(CN(CC(=O)OCOC(C)=O)CC(=O)OCOC(C)=O)cc1C21OC(=O)c2ccccc21`, the GI50 is 0.346 µM (active) in experiment [1]; 2.34 µM (inactive) in experiment [2]; 0.594 µM (active) in experiment [3]; 1.47 µM (inactive) in experiment [4]; 0.303 µM (active) in experiment [5]; 1.66 µM in experiment [6]. Besides, the GI50 in experiment [7] is 0.01 µM (active); in experiment [8], 0.483 µM (active); in [9], 0.299 µM (active); in [10], 1.34 µM (inactive); in experiment [11] it was 0.366 µM (active); in [12], 0.92 µM (active). Further, the GI50 in experiment [13] was 0.998 µM (active); in experiment [14], 1.42 µM (inactive); in experiment [15], 0.34 µM (active); in experiment [16], 1.27 µM (inactive); in [17] it was 0.759 µM (active); in experiment [18], 0.344 µM (active). For the same compound, the GI50 in experiment [19] was 1.82 µM (inactive).
For `Cc1cccc(C)c1NC(=O)C(Cc1c[nH]c2ccccc12)NC(=O)OCc1ccccc1` (stereo unspecified), the GI50 in experiment [1] was 20.1 µM (inactive); in experiment [2], 16.9 µM (inactive); in experiment [3], 13.2 µM (inactive); in experiment [4], 17 µM (inactive); in experiment [5] it was 23.9 µM (inactive); in experiment [6] it was 22.3 µM. Also, the GI50 was 12.4 µM (inactive) in experiment [7]; 18.7 µM (inactive) in experiment [8]; 19.5 µM (inactive) in [9]; 17.7 µM (inactive) in experiment [11]; 22.9 µM (inactive) in experiment [12]; 8.04 µM (inactive) in [13]. Further, the GI50 in experiment [14] is 12.3 µM (inactive); in [20], 15.6 µM (inactive); in experiment [15] it was 13.9 µM (inactive); in [16] it was 18.7 µM (inactive); in experiment [17] it was 27.8 µM (inactive); in experiment [18] it was 14.5 µM (inactive). Also, the GI50 in [19] was 10.3 µM (inactive).
Regarding `Cc1ccc(C(=O)C#Cc2cn(C3CC(O)C(CO)O3)c(=O)[nH]c2=O)cc1` (stereo unspecified), the GI50 in experiment [1] is > 100 µM (inactive); in [2] it was 90.2 µM (inactive); in [3], 38.6 µM (inactive); in [4], > 100 µM (inactive); in experiment [5], 62.2 µM (inactive); in [6], over 100 µM. Also, the GI50 in experiment [8] was > 100 µM (inactive); in experiment [9] it was 95.9 µM (inactive); in experiment [10] it was > 100 µM (inactive); in experiment [11] it was > 100 µM (inactive); in [12], 26.2 µM (inactive); in [13] it was 95.9 µM (inactive). Besides, the GI50 is > 100 µM (inactive) in experiment [14]; 67.8 µM (inactive) in [20]; > 100 µM (inactive) in [15]; > 100 µM (inactive) in experiment [16]; 31 µM (inactive) in [17]; > 100 µM (inactive) in experiment [18]. Further, the GI50 in experiment [19] was > 100 µM (inactive).
For `COc1ccc2c(c1OC)C(=O)N/C2=C\c1c(CCN(C)C)cc2c(c1OC)OCO2`, the GI50 in experiment [1] is > 100 µM (inactive); in [3] it was 46.2 µM (inactive); in experiment [4], > 100 µM (inactive); in experiment [5], 83.2 µM (inactive); in [6], over 100 µM; in experiment [7] it was > 100 µM (inactive). For the same compound, the GI50 in experiment [8], in [10], in experiment [11], in [12], in [13] and in [14] was > 100 µM (inactive) each time. The GI50 was > 100 µM (inactive) in [20]; 22.7 µM (inactive) in [15]; > 100 µM (inactive) in experiment [16]; > 100 µM (inactive) in experiment [17]; 51.2 µM (inactive) in [18].
`COCCn1cnc2c(Cl)nc(Nc3ccccc3)nc21`: the GI50 in experiment [1] was 69.2 µM (inactive); in [3] it was 76.2 µM (inactive); in experiment [4], > 100 µM (inactive); in experiment [5], 27.7 µM (inactive); in experiment [6], 22.9 µM; in experiment [7] it was 22.9 µM (inactive). Further, the GI50 in [8] was 64 µM (inactive); in [9], 17 µM (inactive); in experiment [10] it was > 100 µM (inactive); in experiment [11], 82.4 µM (inactive); in [12], 16.5 µM (inactive); in experiment [13], 22 µM (inactive). Further, the GI50 in experiment [14] is 22.3 µM (inactive); in experiment [20], 86.9 µM (inactive); in experiment [15], 20.9 µM (inactive); in [16], 39.4 µM (inactive); in experiment [17], 32.3 µM (inactive); in [18], 36.7 µM (inactive).
Take `CC(C)(C)c1ccc(/C=N/NC(=O)CSCC(=O)N/N=C/c2ccc(C(C)(C)C)cc2)cc1`: the GI50 in experiment [1] is 1.95 µM (inactive); in experiment [3], 1.17 µM (inactive); in [4] it was 5.83 µM (inactive); in [5] it was 2.03 µM (inactive); in experiment [6] it was 4.14 µM; in [7], 1.72 µM (inactive). Besides, the GI50 in experiment [8] is 1.83 µM (inactive); in [10], 2.09 µM (inactive); in experiment [11], 3.61 µM (inactive); in [13], 3.88 µM (inactive); in experiment [14], 2.8 µM (inactive); in experiment [20] it was 2.77 µM (inactive). Also, the GI50 in experiment [15] was 2.15 µM (inactive); in experiment [16], 1.9 µM (inactive); in experiment [17], 2.59 µM (inactive); in experiment [18] it was 3.02 µM (inactive); in experiment [19] it was 3.71 µM (inactive).
Regarding `Cc1cccc(/C=C2/C(=O)Nc3ccccc32)n1`, the GI50 in experiment [1] was 13 µM (inactive); in experiment [2] it was 11.9 µM (inactive); in [3], 19.9 µM (inactive); in [4] it was 13.2 µM (inactive); in experiment [5], 12.2 µM (inactive); in [6] it was 13.3 µM. The GI50 was 9.95 µM (inactive) in experiment [7]; 24.1 µM (inactive) in [8]; 16.9 µM (inactive) in experiment [11]; 14.2 µM (inactive) in experiment [12]; 23.4 µM (inactive) in experiment [13]; 16.7 µM (inactive) in experiment [14]. The GI50 in [20] was 14.7 µM (inactive); in experiment [15] it was 10.6 µM (inactive); in [16], 14.7 µM (inactive); in experiment [17], 19.3 µM (inactive); in experiment [19], 14.3 µM (inactive).
For `Cc1ccc(/N=N/c2c(C)c(C#N)c(=S)n(C3OC(CO)C(O)C(O)C3O)c2-c2ccccc2)cc1` (stereo unspecified), the GI50 in experiment [1] is 21 µM (inactive); in [2], 25.7 µM (inactive); in experiment [3], 25.1 µM (inactive); in [4], 38.6 µM (inactive); in experiment [5], 13.2 µM (inactive); in experiment [6], 21.9 µM. The GI50 in experiment [7] is 36.8 µM (inactive); in experiment [8], 27.7 µM (inactive); in experiment [9] it was 17.2 µM (inactive); in experiment [11] it was 27.7 µM (inactive); in experiment [12], 19.5 µM (inactive); in experiment [13], 29 µM (inactive). The GI50 is 15 µM (inactive) in experiment [14]; 28.9 µM (inactive) in experiment [20]; 17.8 µM (inactive) in [15]; 26.7 µM (inactive) in [16]; 15.6 µM (inactive) in experiment [17]; 28.1 µM (inactive) in [18]. For the same compound, the GI50 in experiment [19] was 33.5 µM (inactive).
For the compound `CCCCOc1ccc(S(=O)(=O)N/C(=N\O)Nc2ccc(Cl)cc2)cc1`, the GI50 in [1] was 15.8 µM (inactive); in experiment [2], 10.8 µM (inactive); in [3] it was 18.3 µM (inactive); in experiment [4], 15.9 µM (inactive); in [5], 16.9 µM (inactive); in experiment [6], 14.6 µM. Also, the GI50 in experiment [8] is 17.2 µM (inactive); in experiment [9], 16 µM (inactive); in [10], 24 µM (inactive); in experiment [11] it was 15.4 µM (inactive); in experiment [12], 14.9 µM (inactive); in experiment [13], 10.8 µM (inactive). Further, the GI50 in experiment [14] is 15.8 µM (inactive); in experiment [20] it was 21.1 µM (inactive); in [15] it was 15.2 µM (inactive); in [16], 16 µM (inactive); in [17] it was 17.5 µM (inactive); in experiment [18] it was 15.5 µM (inactive). Moreover, the GI50 in experiment [19] is 12.2 µM (inactive).
